From the NIST ThermoML archive (doi:10.1016/j.jct.2006.08.009)
± gives the expanded uncertainty stated by the source.

Test: mn = molality of the nth substance listed, in mol/kg
Details: 350 kPa, Liquid; for apparent molar heat capacity: Extra sensitive DSC

OC[C@@H](O)[C@@H](O)[C@H](O)[C@@H](O)CO [D-sorbitol] + O
Details	apparent molar heat capacity [J/K/mol]	mass density [kg/m3]
318.15 K, m1 = 0.4003	–	1013.97 ± 0.2
318.15 K, m1 = 0.6991	–	1030.3 ± 0.23
318.15 K, m1 = 0.9784	–	1044.19 ± 0.26
318.15 K, m1 = 1.501	–	1068.13 ± 0.31
318.15 K, m1 = 2.004	–	1088.73 ± 0.35
323.15 K, m1 = 0.02	468 ± 51	–
323.15 K, m1 = 0.04	446 ± 26	–
323.15 K, m1 = 0.069	451.9 ± 16	–
323.15 K, m1 = 0.1997	455 ± 7.5	–
323.15 K, m1 = 0.4003	456.3 ± 5.5	–
323.15 K, m1 = 0.6991	457.6 ± 4.6	–
323.15 K, m1 = 0.9784	459 ± 4.3	–
323.15 K, m1 = 1.501	456.5 ± 3.9	–
323.15 K, m1 = 2.004	463 ± 3.7	–
328.15 K, m1 = 0.02	473 ± 51	987.02 ± 0.2
328.15 K, m1 = 0.04	450.8 ± 26	988.24 ± 0.2
328.15 K, m1 = 0.069	457.2 ± 16	989.98 ± 0.19
328.15 K, m1 = 0.1997	460.2 ± 7.5	997.75 ± 0.18
328.15 K, m1 = 0.4003	461.5 ± 5.5	1009.18 ± 0.19
328.15 K, m1 = 0.6991	462.7 ± 4.7	1025.35 ± 0.22
328.15 K, m1 = 0.9784	464 ± 4.4	1039.16 ± 0.25
328.15 K, m1 = 1.501	461.4 ± 3.9	1062.99 ± 0.3
328.15 K, m1 = 2.004	467.6 ± 3.7	1083.37 ± 0.34
333.15 K, m1 = 0.02	478 ± 53	–
333.15 K, m1 = 0.04	456.4 ± 27	–
333.15 K, m1 = 0.069	462 ± 16	–
333.15 K, m1 = 0.1997	464.9 ± 7.5	–
333.15 K, m1 = 0.4003	466.2 ± 5.5	–
333.15 K, m1 = 0.6991	467.3 ± 4.7	–
333.15 K, m1 = 0.9784	468.5 ± 4.2	–
333.15 K, m1 = 1.501	465.9 ± 3.9	–
333.15 K, m1 = 2.004	471.9 ± 3.5	–
338.15 K, m1 = 0.02	482 ± 53	981.86 ± 0.21
338.15 K, m1 = 0.04	460.5 ± 27	983.14 ± 0.21
338.15 K, m1 = 0.069	466.2 ± 16	984.86 ± 0.2
338.15 K, m1 = 0.1997	469.2 ± 7.5	992.6 ± 0.19
338.15 K, m1 = 0.4003	470.5 ± 5.4	1003.94 ± 0.18
338.15 K, m1 = 0.6991	471.5 ± 4.7	1020.02 ± 0.21
338.15 K, m1 = 0.9784	472.6 ± 4.2	1033.71 ± 0.24
338.15 K, m1 = 1.501	470.1 ± 3.9	1057.29 ± 0.29
338.15 K, m1 = 2.004	475.8 ± 3.5	1077.49 ± 0.33
343.15 K, m1 = 0.02	486 ± 53	–
343.15 K, m1 = 0.04	464 ± 27	–
343.15 K, m1 = 0.069	470 ± 16	–
343.15 K, m1 = 0.1997	473 ± 7.5	–
343.15 K, m1 = 0.4003	474.3 ± 5.4	–
343.15 K, m1 = 0.6991	475.3 ± 4.7	–
343.15 K, m1 = 0.9784	476.3 ± 4.2	–
343.15 K, m1 = 1.501	473.9 ± 3.7	–
343.15 K, m1 = 2.004	479.3 ± 3.5	–
348.15 K, m1 = 0.02	489 ± 53	976.44 ± 0.23
348.15 K, m1 = 0.04	467.7 ± 27	977.62 ± 0.22
348.15 K, m1 = 0.069	473.3 ± 16	979.35 ± 0.21
348.15 K, m1 = 0.1997	476.4 ± 7.5	987.03 ± 0.2
348.15 K, m1 = 0.4003	477.7 ± 5.4	998.25 ± 0.18
348.15 K, m1 = 0.6991	478.6 ± 4.5	1014.26 ± 0.2
348.15 K, m1 = 0.9784	479.7 ± 4.2	1027.75 ± 0.23
348.15 K, m1 = 1.501	477.3 ± 3.7	1051.07 ± 0.27
348.15 K, m1 = 2.004	482.4 ± 3.5	1071.23 ± 0.32
353.15 K, m1 = 0.02	492 ± 53	–
353.15 K, m1 = 0.04	472.1 ± 27	–
353.15 K, m1 = 0.069	476.2 ± 17	–
353.15 K, m1 = 0.1997	479.4 ± 7.5	–
353.15 K, m1 = 0.4003	480.6 ± 5.4	–
353.15 K, m1 = 0.6991	481.6 ± 4.5	–
353.15 K, m1 = 0.9784	482.6 ± 4.2	–
353.15 K, m1 = 1.501	480.4 ± 3.7	–
353.15 K, m1 = 2.004	485.2 ± 3.5	–
358.15 K, m1 = 0.02	494 ± 53	969.9 ± 0.24
358.15 K, m1 = 0.04	480.2 ± 27	971.49 ± 0.23
358.15 K, m1 = 0.069	478.7 ± 17	972.88 ± 0.23
358.15 K, m1 = 0.1997	481.7 ± 7.5	980.97 ± 0.21
358.15 K, m1 = 0.4003	483 ± 5.4	991.75 ± 0.19
358.15 K, m1 = 0.6991	483.9 ± 4.5	1007.73 ± 0.19
358.15 K, m1 = 0.9784	484.8 ± 4.2	1021.37 ± 0.22
358.15 K, m1 = 1.501	483.2 ± 3.7	1044.38 ± 0.26
358.15 K, m1 = 2.004	487.4 ± 3.5	1064.53 ± 0.3
363.15 K, m1 = 0.02	495 ± 54	–
363.15 K, m1 = 0.04	508 ± 27	–
363.15 K, m1 = 0.069	479.6 ± 17	–
363.15 K, m1 = 0.1997	482.5 ± 7.5	–
363.15 K, m1 = 0.4003	483.7 ± 5.4	–
363.15 K, m1 = 0.6991	484.6 ± 4.5	–
363.15 K, m1 = 0.9784	485.5 ± 4.2	–
363.15 K, m1 = 1.501	485.7 ± 3.7	–
363.15 K, m1 = 2.004	487.9 ± 3.5	–
368.15 K, m1 = 0.02	–	963.45 ± 0.25
368.15 K, m1 = 0.04	–	964.68 ± 0.25
368.15 K, m1 = 0.069	–	966.4 ± 0.24
368.15 K, m1 = 0.1997	–	974.03 ± 0.23
368.15 K, m1 = 0.4003	–	985.25 ± 0.21
368.15 K, m1 = 0.6991	–	1001.2 ± 0.18
368.15 K, m1 = 0.9784	–	1014.47 ± 0.2
368.15 K, m1 = 1.501	–	1037.56 ± 0.25
368.15 K, m1 = 2.004	–	1057.91 ± 0.29
